For 20 compounds, IC50 results are on record in patent publication US10479780B2, “Aminopyrazole derivatives” (Chugai Seiyaku Kabushiki Kaisha, priority 2015, dated 2019).

Read-outs that look alike come from different tables or passages of the source.

Holding throughout (format): biochemical
For one assay, the target named is T1, human Yes1 enzyme (Homo sapiens, UniProt P07947).
T1 construct: made in house
Description: Yes1 enzyme inhibitory activity (time-resolved fluorometry, biotinylated peptide phosphorylation). The following applies: read-out: YES_IC50. An outline of the steps: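 Inhibition was expressed against a compound-free control to give IC50, using TR-FRET read-out (Eu-cryptate anti-pTyr antibody, streptavidin-XL665).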

The next assay deals with T2, human Src enzyme (Homo sapiens, UniProt P12931).
T2 construct: purchased Carna Biosciences, Inc. 08-173
Briefly: Src enzyme inhibitory activity (time-resolved fluorometry, biotinylated peptide phosphorylation). The following applies: read-out: SRC_IC50. An outline of the steps: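 Compounds were tested for blocking tyrosine phosphorylation of a biotinylated peptide substrate by recombinant human Src. Phosphorylated product was quantified by time-resolved fluorometry using europium cryptate and XL665 conjugates, and IC50 was calculated against the compound-free control.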

A further assay concerns the target T3, human Lck enzyme (Homo sapiens, UniProt P06239).
T3 construct: purchased Carna Biosciences, Inc. 08-170
Briefly: Lck enzyme inhibitory activity (time-resolved fluorometry, biotinylated peptide phosphorylation). The following applies: read-out: LCK_IC50. The method in brief:
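Readout pairs a europium cryptate-labelled anti-phosphotyrosine antibody with XL665-streptavidin, measured by time-resolved fluorescence. IC50 derived from percent inhibition against untreated controls.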

Setting [1] is: biotinylated peptide phosphorylation.

T2 sequence (P12931 whole entry): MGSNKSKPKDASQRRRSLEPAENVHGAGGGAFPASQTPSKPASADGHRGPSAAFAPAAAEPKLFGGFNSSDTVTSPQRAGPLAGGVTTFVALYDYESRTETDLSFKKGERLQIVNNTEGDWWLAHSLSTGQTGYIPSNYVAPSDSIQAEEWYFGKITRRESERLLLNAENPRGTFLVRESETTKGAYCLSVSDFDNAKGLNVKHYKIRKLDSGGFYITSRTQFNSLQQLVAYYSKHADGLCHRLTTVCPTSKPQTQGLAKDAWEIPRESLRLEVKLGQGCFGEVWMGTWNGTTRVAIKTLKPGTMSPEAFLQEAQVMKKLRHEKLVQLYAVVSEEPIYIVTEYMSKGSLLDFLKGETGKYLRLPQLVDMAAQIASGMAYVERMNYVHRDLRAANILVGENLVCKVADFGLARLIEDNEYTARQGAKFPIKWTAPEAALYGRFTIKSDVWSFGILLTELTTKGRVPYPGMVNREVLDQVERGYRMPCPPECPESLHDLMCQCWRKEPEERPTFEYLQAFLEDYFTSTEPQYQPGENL
T1 sequence (P07947 whole entry): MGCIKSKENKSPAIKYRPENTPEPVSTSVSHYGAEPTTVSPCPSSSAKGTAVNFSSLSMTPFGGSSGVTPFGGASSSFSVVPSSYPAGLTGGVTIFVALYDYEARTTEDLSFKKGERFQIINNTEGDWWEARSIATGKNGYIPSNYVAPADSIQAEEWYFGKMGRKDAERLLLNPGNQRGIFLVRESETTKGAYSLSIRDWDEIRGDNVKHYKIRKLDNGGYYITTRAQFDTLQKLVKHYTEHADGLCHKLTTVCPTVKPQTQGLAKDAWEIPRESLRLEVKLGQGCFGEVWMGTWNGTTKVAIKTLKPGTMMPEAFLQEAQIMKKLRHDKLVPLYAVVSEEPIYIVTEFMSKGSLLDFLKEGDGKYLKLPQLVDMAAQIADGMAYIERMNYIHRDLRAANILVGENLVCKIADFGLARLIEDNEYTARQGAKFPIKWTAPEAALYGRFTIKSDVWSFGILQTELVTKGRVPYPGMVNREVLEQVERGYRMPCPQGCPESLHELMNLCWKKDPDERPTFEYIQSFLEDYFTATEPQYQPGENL
T3 sequence (P06239 whole entry): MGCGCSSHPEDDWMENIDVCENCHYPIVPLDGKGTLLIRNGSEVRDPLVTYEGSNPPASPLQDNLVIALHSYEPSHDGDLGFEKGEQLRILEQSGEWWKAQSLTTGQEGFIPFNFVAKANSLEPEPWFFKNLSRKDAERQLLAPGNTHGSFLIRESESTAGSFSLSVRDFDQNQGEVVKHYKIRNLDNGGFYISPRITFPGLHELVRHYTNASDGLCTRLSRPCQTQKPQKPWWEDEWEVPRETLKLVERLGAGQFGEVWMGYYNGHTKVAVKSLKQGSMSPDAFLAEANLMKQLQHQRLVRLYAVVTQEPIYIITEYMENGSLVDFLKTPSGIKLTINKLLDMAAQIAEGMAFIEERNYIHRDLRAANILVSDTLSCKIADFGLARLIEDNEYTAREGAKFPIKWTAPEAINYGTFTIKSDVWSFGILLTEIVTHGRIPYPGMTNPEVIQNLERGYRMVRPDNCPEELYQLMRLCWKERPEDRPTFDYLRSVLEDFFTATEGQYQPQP

For `Cc1cc2cc(C(=O)c3cnn(-c4ccc(Oc5ccccc5F)c(C)c4C)c3N)[nH]c2cc1NS(C)(=O)=O` [Example 5-1-213, N-[2-[5-amino-1-[4-(2-fluorophenoxy)-2,3-dimethylphenyl]pyrazole-4-carbonyl]-5-methyl-1H-indol-6-yl]methanesulfonamide], the IC50 at human Yes1 enzyme came out at 9.8 nM; on human Src enzyme it was 600 nM; on human Lck enzyme, 150 nM.
As to `Cc1cc(Oc2c(F)cccc2F)ncc1-n1ncc(C(=O)c2cc3cc(OCC(F)F)c(N4CCOCC4)cc3[nH]2)c1N` [Example 4-1-016, [5-amino-1-[6-(2,6-difluorophenoxy)-4-methylpyridin-3-yl]pyrazol-4-yl]-[5-(2,2-difluoroethoxy)-6-morpholin-4-yl-1H-indol-2-yl]methanone], the IC50 on human Yes1 enzyme (setting [1]) came out at 2.1 nM; at human Src enzyme (setting [1]), 14 nM; on human Lck enzyme (setting [1]) it was 7.5 nM.
For `CC(=O)N1CCC(c2cc3[nH]c(C(=O)c4cnn(-c5cnc(Oc6ccccc6F)cc5C)c4N)cc3cc2OCC(F)F)CC1` [Example 4-17-020, 1-[4-[2-[5-amino-1-[6-(2-fluorophenoxy)-4-methylpyridin-3-yl]pyrazole-4-carbonyl]-5-(2,2-difluoroethoxy)-1H-indol-6-yl]piperidin-1-yl]ethanone], in that order: 0.81 nM, 8.3 nM and 3.3 nM.
Take `Cc1cc(Oc2c(F)cccc2F)ncc1-n1ncc(C(=O)c2cc3cc(OCC(F)F)c(N4C(=O)N[C@]5(CCNC5)C4=O)cc3[nH]2)c1N` [Example 5-1-348, (5S)-3-[2-[5-amino-1-[6-(2,6-difluorophenoxy)-4-methylpyridin-3-yl]pyrazole-4-carbonyl]-5-(2,2-difluoroethoxy)-1H-indol-6-yl]-1,3,7-triazaspiro[4.4]nonane-2,4-dione]: the IC50 at human Yes1 enzyme stood at 0.8 nM; at human Src enzyme, 13 nM; at human Lck enzyme, 2 nM.
Regarding `Cc1cc2cc(C(=O)c3cnn(-c4cnc(Oc5c(F)cccc5F)cc4C)c3N)[nH]c2cc1N1C(=O)NC2(CCCC2)C1=O` [Example 5-1-367, 3-[2-[5-amino-1-[6-(2,6-difluorophenoxy)-4-methylpyridin-3-yl]pyrazole-4-carbonyl]-5-methyl-1H-indol-6-yl]-1,3-diazaspiro[4.4] nonane-2,4-dione], the results for the IC50 at human Yes1 enzyme, on human Src enzyme and on human Lck enzyme were 5.6 nM, 77 nM and 16 nM, respectively.
For `Nc1c(C(=O)c2cc3cc(F)c(NS(=O)(=O)CCCF)cc3[nH]2)cnn1-c1c(F)cc(Oc2cccc(F)c2F)cc1F` [Example 5-1-034, N-[2-[5-amino-1-[4-(2,3-difluorophenoxy)-2,6-difluorophenyl]pyrazole-4-carbonyl]-5-fluoro-1H-indol-6-yl]-3-fluoropropane-1-sulfonamide], in that order: 3.5 nM, 180 nM and 62 nM.
Take `Cc1cccc(S(=O)(=O)Nc2cc3[nH]c(C(=O)c4cnn(-c5cnc(Oc6c(F)cccc6F)cc5C)c4N)cc3cc2F)n1` [Example 5-1-533, N-[2-[5-amino-1-[6-(2,6-difluorophenoxy)-4-methylpyridin-3-yl]pyrazole-4-carbonyl]-5-fluoro-1H-indol-6-yl]-6-methylpyridine-2-sulfonamide]: the IC50 on human Yes1 enzyme (setting [1]) came to 4.7 nM; on human Src enzyme (setting [1]) it was 510 nM; at human Lck enzyme (setting [1]) it was 120 nM.
As for `Cc1cc(-n2ncc(C(=O)c3cc4cc(OCC(F)F)c(NS(C)(=O)=O)cc4[nH]3)c2N)ccc1Oc1ccccc1F` [Example 5-1-166, N-[2-[5-amino-1-[4-(2-fluorophenoxy)-3-methylphenyl]pyrazole-4-carbonyl]-5-(2,2-difluoroethoxy)-1H-indol-6-yl] methanesulfonamide], the IC50 on human Yes1 enzyme was found to be 2 nM; on human Src enzyme it was 820 nM; on human Lck enzyme, 250 nM.
With `Cc1cc2cc(C(=O)c3cnn(-c4cnc(Oc5c(F)cccc5F)cc4C)c3N)[nH]c2cc1NS(=O)(=O)C1CCOCC1` [Example 5-1-269, N-[2-[5-amino-1-[6-(2,6-difluorophenoxy)-4-methylpyridin-3-yl]pyrazole-4-carbonyl]-5-methyl-1H-indol-6-yl]oxane-4-sulfonamide], the IC50 is 2 nM on human Yes1 enzyme, 110 nM at human Src enzyme and 23 nM on human Lck enzyme.
`COc1cc2cc(C(=O)c3cnn(-c4c(C)cc(Oc5ccccc5F)cc4F)c3N)[nH]c2cc1NS(C)(=O)=O` [Example 4-1-006, N-[2-[5-amino-1-[2-fluoro-4-(2-fluorophenoxy)-6-methylphenyl]pyrazole-4-carbonyl]-5-methoxy-1H-indol-6-yl]methanesulfonamide]: the IC50 on human Yes1 enzyme (setting [1]) came out at 1.8 nM; on human Src enzyme (setting [1]), 74 nM; at human Lck enzyme (setting [1]), 11 nM.
In the case of `Cc1cc(Oc2ccccc2F)ncc1-n1ncc(C(=O)c2cc3cc(F)c(NS(=O)(=O)C4CC4)cc3[nH]2)c1N` [Example 4-2-043, N-[2-[5-amino-1-[6-(2-fluorophenoxy)-4-methylpyridin-3-yl]pyrazole-4-carbonyl]-5-fluoro-1H-indol-6-yl]cyclopropanesulfonamide], the IC50 on human Yes1 enzyme (setting [1]) was found to be 1.4 nM; at human Src enzyme (setting [1]), 87 nM; at human Lck enzyme (setting [1]) it was 28 nM.
In the case of `Cc1cc(Oc2ccccc2F)ccc1-n1ncc(C(=O)c2cc3cc(F)c(NS(=O)(=O)c4cncc(Cl)c4)cc3[nH]2)c1N` [Example 5-1-542, N-[2-[5-amino-1-[4-(2-fluorophenoxy)-2-methylphenyl]pyrazole-4-carbonyl]-5-fluoro-1H-indol-6-yl]-5-chloropyridine-3-sulfonamide], the IC50 at human Yes1 enzyme (setting [1]) is 3.6 nM; at human Src enzyme (setting [1]) it was 430 nM; on human Lck enzyme (setting [1]), 180 nM.
`Cc1cc(-n2ncc(C(=O)c3cc4cc(OC5CCN(C(C)C)CC5)c(NS(C)(=O)=O)cc4[nH]3)c2N)ccc1Oc1ccccc1F` [Example 5-1-156, N-(2-(5-amino-1-(4-(2-fluorophenoxy)-3-methylphenyl)-1H-pyrazole-4-carbonyl)-5-((1-isopropylpiperidin-4-yl)oxy)-1H-indol-6-yl)methanesulfonamide]: the IC50 on human Yes1 enzyme worked out at 1.6 nM; on human Src enzyme, 1100 nM; on human Lck enzyme, 64 nM.
Consider `Cc1cc(-n2ncc(C(=O)c3cc4cc(OC5CCN(C(C)C)CC5)c(Br)cc4[nH]3)c2N)c(F)cc1Oc1ccccc1F` [Example 5-1-212, [5-amino-1-[2-fluoro-4-(2-fluorophenoxy)-5-methylphenyl]pyrazol-4-yl]-[6-bromo-5-(1-propan-2-ylpiperidin-4-yl)oxy-1H-indol-2-yl] methanone], for which the IC50 on human Yes1 enzyme was 4.5 nM; at human Src enzyme, 220 nM; at human Lck enzyme, 60 nM.
On to `Cc1cc(Oc2ccccc2F)ccc1-n1ncc(C(=O)c2cc3cc(OCC(F)F)c(N4CCOCC4)cc3[nH]2)c1N` [Example 4-1-015, [5-amino-1-[4-(2-fluorophenoxy)-2-methylphenyl]pyrazol-4-yl]-[5-(2,2-difluoroethoxy)-6-morpholin-4-yl-1H-indol-2-yl]methanone], for which the IC50 came out at 1 nM on human Yes1 enzyme (setting [1]), 14 nM on human Src enzyme (setting [1]) and 10 nM on human Lck enzyme (setting [1]).
For `Cc1cc2cc(C(=O)c3cnn(-c4cnc(Oc5c(F)cccc5F)cc4C)c3N)[nH]c2cc1C1CCN(S(C)(=O)=O)CC1` [Example 5-1-091, [5-amino-1-[6-(2,6-difluorophenoxy)-4-methylpyridin-3-yl]pyrazol-4-yl]-[5-methyl-6-(1-methylsulfonylpiperidin-4-yl)-1H-indol-2-yl] methanone], the values for the IC50 on human Yes1 enzyme, on human Src enzyme and at human Lck enzyme were 3.2 nM, 24 nM and 3.7 nM, respectively.
For `Cc1cc2cc(C(=O)c3cnn(-c4ccc(Oc5ccccc5F)cc4C)c3N)[nH]c2cc1NS(=O)(=O)CC(=O)N1CCOCC1` [Example 4-10-007, N-{2-{5-amino-1-[4-(2-fluorophenoxy)-2-methylphenyl]pyrazole-4-carbonyl}-5-methyl-1H-indol-6-yl}-2-morpholin-4-yl-2-oxoethanesulfonamide], the IC50 at human Yes1 enzyme (setting [1]) is 0.48 nM; on human Src enzyme (setting [1]), 13 nM; on human Lck enzyme (setting [1]), 8.5 nM.
`Cc1cc(Oc2ccccc2F)nc(C)c1-n1ncc(C(=O)c2cc3cc(F)c(NS(C)(=O)=O)cc3[nH]2)c1N` [Example 5-1-060, N-[2-[5-amino-1-[6-(2-fluorophenoxy)-2,4-dimethylpyridin-3-yl]pyrazole-4-carbonyl]-5-fluoro-1H-indol-6-yl]methanesulfonamide]: the IC50 is 82 nM at human Yes1 enzyme, 390 nM at human Src enzyme and 42 nM at human Lck enzyme.
Take `COc1cc2cc(C(=O)c3cnn(-c4cnc(Oc5c(F)cccc5F)cc4C)c3N)[nH]c2cc1NS(=O)(=O)CCCF` [Example 4-19-001, N-(2-(5-amino-1-(6-(2,6-difluorophenoxy)-4-methylpyridin-3-yl)-1H-pyrazole-4-carbonyl)-5-methoxy-1H-indol-6-yl)-3-fluoropropane-1-sulfonamide]: the IC50 at human Yes1 enzyme (setting [1]) came to 0.83 nM; at human Src enzyme (setting [1]) it was 28 nM; at human Lck enzyme (setting [1]) it was 3.9 nM.
Take `COc1cncc(S(=O)(=O)Nc2cc3[nH]c(C(=O)c4cnn(-c5cnc(Oc6ccccc6F)cc5C)c4N)cc3cc2C)c1` [Example 5-1-484, N-[2-[5-amino-1-[6-(2-fluorophenoxy)-4-methylpyridin-3-yl]pyrazole-4-carbonyl]-5-methyl-1H-indol-6-yl]-5-methoxypyridine-3-sulfonamide]: the IC50 at human Yes1 enzyme (setting [1]) is 6.9 nM; on human Src enzyme (setting [1]), 570 nM; on human Lck enzyme (setting [1]) it was 140 nM.
